Test results reported in US10577395B2 (priority 2014, dated 2020).
In brackets after ≈: the same amount, converted by molar mass. Where two headings read alike, the source gives them in different places. Marks after values point to notes of the source that are not given here.

Tests used:
[1] = system: Enterococcus faecium (VanA VRE, ATCC BAA-2317); test: Antimicrobial assay, MIC, VanA E. faecium; format: cell-based; conditions: Enterococcus faecium
Method: (§1) Assays were carried out following the methods of Clinical and Laboratory Standards Institute; Methods for Dilution Antimicrobial Susceptibility Tests for Bacteria That Grow Aerobically; Approved Standard, […].; CLSI document M07-A8; Clinical and Laboratory Standards Institute: Wayne, Pa., 2009.
(§2) This diluted bacterial stock solution was then inoculated into a well of a V-shaped 96-well glass coated microtiter plate, supplemented with serial diluted aliquots of the antibiotic solution DMSO (4 μL), to achieve a total assay volume of 0.1 mL. The plate was then incubated at 37° C. for 18 hours, after which minimal inhibitory concentrations (MICs) were determined by monitoring the cell growth (observed as a pellet) in the wells. The lowest concentration of antibiotic (in μg/mL) capable of eliminating the cell growth in the wells is reported as the MIC.

[2] = system: vancomycin-sensitive Staphylococcus aureus (VSSA strain ATCC 25923); test: Antimicrobial assay, MIC, vancomycin-sensitive S. aureus; format: cell-based; conditions: Staphylococcus aureus, ATCC 25923
Method: as §1, §2

[3] = system: methicillin and oxacillin-resistant Staphylococcus aureus subsp. aureus (MRSA strain ATCC 43300); test: Antimicrobial assay, MIC, MRSA; format: cell-based; conditions: Staphylococcus aureus
Method: as §1, §2

[4] = system: panel of Gram-positive bacteria (VSSA, MRSA, VanA and VanB VRE); test: Antimicrobial assay, MIC across the bacterial panel; format: cell-based, S. aureus, E. faecalis, E. faecium; conditions: for MIC: Staphylococcus aureus, read-out: MICs across the bacterial panel, vancomycin-sensitive and vancomycin-resistant strains
Method: as §1, §2

[5] = system: vancomycin-resistant Enterococcus faecalis (VanB VRE, strain ATCC 51299); test: microbe, parasite or virus in culture; format: cell-based; conditions: Enterococcus faecalis
Method: as §1, §2

[6] = system: vancomycin-resistant Enterococcus faecalis (VanA VRE, BM4166); test: microbe, parasite or virus in culture; format: cell-based; conditions: for MIC: Enterococcus faecalis, VRE
Method: as §1, §2

VanA VRE = test: Antimicrobial assay, MIC for VanA VRE; format: cell-based, E. faecalis and E. faecium
Method: as §1, §2

[7] = cited from earlier work; for ligand, Ka (M^−1), 11, Y = NH: association constant, ligand 11 (Y = NH)
[8] = system: vancomycin-resistant Enterococcus faecalis (VanA VRE, BM4166); conditions: E. faecalis (BM4166, VanA VRE); earlier studies; cited from earlier work
[9] = Binding of model ligand 11 (Y = NH), association constant Ka; conditions: ratio of Ka for ligand 11 to ligand 12
[10] = association constant, ligand 12 (Y = O); cited from earlier work
[11] = read-out: MIC, Van A E. faecium, serum concentration 10%
[12] = read-out: MIC, Van A E. faecium, serum concentration 25%
[13] = read-out: MIC, Van A E. faecium, serum concentration 100%
[14] = ATCC25923, read-out: MIC, sensitive S. aureus, serum concentration 10%, 10%
[15] = ATCC25923, read-out: MIC, sensitive S. aureus, serum concentration 100%, 100%
[16] = ATCC25923, 25%, read-out: MIC, sensitive S. aureus, serum concentration 25%
[17] = ATCC25923, read-out: MIC, sensitive S. aureus
[18] = read-out: MIC, MRSA S. aureus, serum concentration 10%
[19] = read-out: MIC, MRSA S. aureus, serum concentration 25%
[20] = read-out: MIC, MRSA S. aureus, serum concentration 100%
[21] = read-out: MIC, Van B E. faecalis, serum concentration 10%
[22] = read-out: MIC, Van B E. faecalis, serum concentration 25%
[23] = read-out: MIC, Van B E. faecalis, serum concentration 100%
[24] = read-out: MIC, VanB E. faecalis
[25] = read-out: MIC, Van A E. faecalis, serum concentration 10%
[26] = read-out: MIC, Van A E. faecalis, serum concentration 25%
[27] = read-out: MIC, Van A E. faecalis, serum concentration 100%
[28] = read-out: MIC, VanA E. faecalis

Compound | MIC [1, 11] | MIC [1, 12] | MIC [1, 13] | MIC ([1]; read-out: MIC, VanA E. faecium) | MIC [2, 14] | MIC [2, 15] | MIC [2, 16] | MIC [2, 17] | MIC ([3]; read-out: MIC, MRSA S. aureus) | MIC [3, 18] | MIC [3, 19] | MIC [3, 20] | MIC [5, 21] | MIC [5, 22] | MIC [5, 23] | MIC [5, 24] | MIC [6, 25] | MIC [6, 26] | ligand, Ka (M^−1), 11, Y = NH [7] | ligand, Ka (M^−1), 12, Y = O [10] | other results
CN[C@H](CC(C)C)C(=O)N[C@H]1C(=O)N[C@@H](CC(N)=O)C(=O)N[C@H]2C(=S)NC3C(=O)N[C@H](C(=O)N[C@H](C(=O)O)c4cc(O)cc(O)c4-c4cc3ccc4O)[C@H](O)c3ccc(c(Cl)c3)Oc3cc2cc(c3OC2OC(CO)C(O)[C@H](O)[C@@H]2O[C@H]2CC(C)(N)[C@H](O)[C@H](C)O2)Oc2ccc(cc2Cl)[C@H]1O (stereo partly shown) [Compound 2, [Ψ[C(═S)NH]Tpg^4]vancomycin] | > 32 mg/L | > 32 mg/L | > 32 mg/L | > 32 mg/L | > 32 mg/L | > 32 mg/L | > 32 mg/L | > 32 mg/L | > 32 mg/L | > 32 mg/L | > 32 mg/L | > 32 mg/L | > 32 mg/L | > 32 mg/L | > 32 mg/L | > 32 mg/L | > 32 mg/L | > 32 mg/L | – | – | MIC [4]: > 32 mg/L; MIC [6, 27]: > 32 mg/L; MIC [6, 28]: > 32 mg/L
CN[C@H](CC(C)C)C(=O)N[C@H]1C(=O)N[C@@H](CC(N)=O)C(=O)N[C@H]2C(=S)NC3C(=O)N[C@H](C(=O)N[C@H](C(=O)O)c4cc(O)cc(O)c4-c4cc3ccc4O)[C@H](O)c3ccc(c(Cl)c3)Oc3cc2cc(c3OC2OC(CO)C(O)[C@H](O)[C@@H]2O[C@H]2CC(C)(NCc3ccc(-c4ccc(Cl)cc4)cc3)[C@H](O)[C@H](C)O2)Oc2ccc(cc2Cl)[C@H]1O (stereo partly shown) [Compound 5, N-4-(4′-chlorobiphenyl)-methyl [Ψ[C(═S)NH]Tpg^4]vancomycin] | 4 mg/L (≈ 2.4 µM) | 4 mg/L (≈ 2.4 µM) | 8 mg/L (≈ 4.8 µM) | 4 mg/L (≈ 2.4 µM) | 2 mg/L (≈ 1.2 µM) | 4 mg/L (≈ 2.4 µM) | 2 mg/L (≈ 1.2 µM) | 2 mg/L (≈ 1.2 µM) | 2 mg/L (≈ 1.2 µM) | 2 mg/L (≈ 1.2 µM) | 4 mg/L (≈ 2.4 µM) | 4 mg/L (≈ 2.4 µM) | 2 mg/L (≈ 1.2 µM) | 2 mg/L (≈ 1.2 µM) | 8 mg/L (≈ 4.8 µM) | 2 mg/L (≈ 1.2 µM) | 4 mg/L (≈ 2.4 µM) | 4 mg/L (≈ 2.4 µM) | – | – | MIC [4]: 2 to 4 mg/L (≈ 1.2 to 2.4 µM); MIC [6, 27]: 8 mg/L (≈ 4.8 µM); MIC [6, 28]: 4 mg/L (≈ 2.4 µM)
CN[C@H](CC(C)C)C(=O)N[C@H]1C(=O)N[C@@H](CC(N)=O)C(=O)N[C@H]2C(=N)NC3C(=O)N[C@H](C(=O)N[C@H](C(=O)O)c4cc(O)cc(O)c4-c4cc3ccc4O)[C@H](O)c3ccc(c(Cl)c3)Oc3cc2cc(c3OC2OC(CO)C(O)[C@H](O)[C@@H]2O[C@H]2CC(C)(NCc3ccc(-c4ccc(Cl)cc4)cc3)[C@H](O)[C@H](C)O2)Oc2ccc(cc2Cl)[C@H]1O (stereo partly shown) [Compound 6, N-4-(4′-chlorobiphenyl)methyl [Ψ[C(═NH)NH]Tpg^4]-vancomycin] | 0.005 mg/L (≈ 0.00303 µM) | 0.06 mg/L (≈ 0.0364 µM) | 0.5 mg/L (≈ 0.303 µM) | 0.005 mg/L (≈ 0.00303 µM) | 0.03 mg/L (≈ 0.0182 µM) | 1 mg/L (≈ 0.606 µM) | 0.12 mg/L (≈ 0.0728 µM) | 0.03 mg/L (≈ 0.0182 µM) | 0.06 mg/L (≈ 0.0364 µM) | 0.06 mg/L (≈ 0.0364 µM) | 0.24 mg/L (≈ 0.146 µM) | 1 mg/L (≈ 0.606 µM) | 0.06 mg/L (≈ 0.0364 µM) | 0.12 mg/L (≈ 0.0728 µM) | 1 mg/L (≈ 0.606 µM) | 0.06 mg/L (≈ 0.0364 µM) | 0.005 mg/L (≈ 0.00303 µM) | 0.06 mg/L (≈ 0.0364 µM) | – | – | potency relative to Compound 17, on average across the panel [4]: 15 fold; MIC [6, 27]: 0.5 mg/L (≈ 0.303 µM); MIC [6, 28]: 0.005 mg/L (≈ 0.00303 µM); increase in activity against VanA VRE relative to vancomycin (Compound 1) (VanA VRE): 50,000 fold; MIC (VanA VRE; Enterococcus, VRE, read-out: MIC against VanA VRE): 0.005 mg/L (≈ 0.00303 µM); improvement in activity against VanA VRE on introduction of the (4-chlorobiphenyl)methyl group (VanA VRE; relative to the analogue without CBP group): 100 fold
CN[C@H](CC(C)C)C(=O)N[C@H]1C(=O)N[C@@H](CC(N)=O)C(=O)N[C@H]2C(=O)N[C@H]3C(=O)N[C@H](C(=O)N[C@H](C(=O)O)c4cc(O)cc(O)c4-c4cc3ccc4O)[C@H](O)c3ccc(c(Cl)c3)Oc3cc2cc(c3O)Oc2ccc(cc2Cl)[C@H]1O [Compound 7, vancomycin aglycon] | – | – | – | – | – | – | – | – | – | – | – | – | – | – | – | – | – | – | 170000 M⁻¹ | 120 M⁻¹ | VanA MIC [8]: 640 mg/L; Ka(11/12) [9]: 1400
CN[C@H](CC(C)C)C(=O)N[C@H]1C(=O)N[C@@H](CC(N)=O)C(=O)N[C@H]2C(=S)NC3C(=O)N[C@H](C(=O)N[C@H](C(=O)O)c4cc(O)cc(O)c4-c4cc3ccc4O)[C@H](O)c3ccc(c(Cl)c3)Oc3cc2cc(c3O)Oc2ccc(cc2Cl)[C@H]1O [Compound 8, [Ψ[C(═S)NH]Tpg^4]vancomycin aglycon] | – | – | – | – | – | – | – | – | – | – | – | – | – | – | – | – | – | – | 170 M⁻¹ | 11 M⁻¹ | VanA MIC [8]: >640 mg/L
CN[C@H](CC(C)C)C(=O)N[C@H]1C(=O)N[C@@H](CC(N)=O)C(=O)N[C@H]2C(=N)NC3C(=O)N[C@H](C(=O)N[C@H](C(=O)O)c4cc(O)cc(O)c4-c4cc3ccc4O)[C@H](O)c3ccc(c(Cl)c3)Oc3cc2cc(c3O)Oc2ccc(cc2Cl)[C@H]1O [Compound 9, [Ψ[C(═NH)NH]Tpg^4]vancomycin aglycon] | – | – | – | – | – | – | – | – | – | – | – | – | – | – | – | – | – | – | 73000 M⁻¹ | 69000 M⁻¹ | binding affinity for both target ligands relative to vancomycin aglycon with D-Ala-D-Ala ([7]; D-Ala-D-Ala and D-Ala-D-Lac): ≤ 2 fold; VanA MIC, μg/mL ([6]; E. faecalis (BM4166, VanA VRE), tested herein alongside Compounds 1-6): 1^b μg/mL; Ka(11/12) [9]: 1.05
[Ψ[CH2NH]Tpg^4]vancomycin aglycon [Compound 10] | – | – | – | – | – | – | – | – | – | – | – | – | – | – | – | – | – | – | 4800 M⁻¹ | 5200 M⁻¹ | VanA MIC [8]: 31 mg/L; Ka(11/12) [9]: 0.9
